Data published in BindingDB's records for doi:10.1038/nchembio.2304 (Novartis Institutes for BioMedical Research, 2017).

Columns and labels:
Experiment in all cases: HMT Assay
[1] = target: Tyrosine-protein kinase Lyn (Homo sapiens, UniProt P07948)
[2] = target: Muscarinic acetylcholine receptor M2 (Homo sapiens, UniProt P08172)
[3] = target: Acetylcholine receptor subunit alpha (Homo sapiens, UniProt P02708)
[4] = target: Gamma-aminobutyric acid receptor subunit alpha-1 (Homo sapiens, UniProt P14867)
[5] = target: Alpha-1A adrenergic receptor (Homo sapiens, UniProt P35348)
[6] = target: T1, Rho-associated protein kinase 2 [6-553] (Human, UniProt O75116)
T1 construct: 6-553

[7] = target: Serine/threonine-protein kinase 17B (Homo sapiens, UniProt O94768)
[8] = target: N-lysine methyltransferase SETD6 (Human, UniProt Q8TBK2)
[9] = target: T2, Fibroblast growth factor receptor 2 [406-821] (Human, UniProt P21802)
T2 construct: 406-821

[10] = target: Tyrosine-protein kinase BTK (Homo sapiens, UniProt Q06187)
D(1A) dopamine receptor = D(1A) dopamine receptor (Homo sapiens, UniProt P21728)
[11] = target: 5-hydroxytryptamine receptor 1A (Homo sapiens, UniProt P08908)
[12] = target: T3, Tyrosine-protein kinase ABL1 [64-515] (Homo sapiens, UniProt P00519)
T3 construct: 64-515

[13] = target: T4, Protein arginine N-methyltransferase 1 [11-371] (Homo sapiens, UniProt Q99873)
T4 construct: 11-371

[14] = target: T5, Interleukin-1 receptor-associated kinase 1 [184-712] (Human, UniProt P51617)
T5 construct: 184-712

[15] = target: Protein kinase C theta type (Homo sapiens, UniProt Q04759)
[16] = target: DNA (cytosine-5)-methyltransferase 1 (Homo sapiens, UniProt P26358)
[17] = target: Protein arginine N-methyltransferase 3 [N508S] (Homo sapiens, UniProt O60678, N508S)
[18] = target: Methylosome protein 50/Protein arginine N-methyltransferase 5 (Homo sapiens, UniProt O14744)
[19] = target: Histone-lysine N-methyltransferase SUV39H2 (Human, UniProt Q9H5I1)
[20] = target: T6, Mitogen-activated protein kinase kinase kinase 8 [30-404] (Human, UniProt P41279)
T6 construct: 30-404

[21] = target: Mitogen-activated protein kinase kinase kinase kinase 4 (Homo sapiens, UniProt O95819)
[22] = target: T7, Receptor-type tyrosine-protein kinase FLT3 [563-993,D835Y] (Human, UniProt P36888, D835Y)
T7 construct: 563-993

Estrogen receptor = Estrogen receptor (Homo sapiens, UniProt P03372)
[23] = target: Serine/threonine-protein kinase 4 (Human, UniProt Q13043)
[24] = target: Sodium-dependent noradrenaline transporter (Homo sapiens, UniProt P23975)
[25] = target: T8, Fibroblast growth factor receptor 4 [388-802] (Human, UniProt P22455)
T8 construct: 388-802

[26] = target: Histone-lysine N-methyltransferase NSD3 (Homo sapiens, UniProt Q9BZ95)
[27] = target: Protein kinase C alpha type (Homo sapiens, UniProt P17252)
[28] = target: Histone-arginine methyltransferase CARM1 (Homo sapiens, UniProt Q86X55)
Experimental: (§1) All HMT reactions were performed as described previously [Nasveschuk et al., ACS Med. Chem. Lett., 5:378-383].

[29] = target: Histone-lysine N-methyltransferase EHMT2 (Homo sapiens, UniProt Q96KQ7)
Experimental: as §1

[30] = target: Histone-lysine N-methyltransferase SMYD3 (Homo sapiens, UniProt Q9H7B4)
Experimental: as §1

[31] = target: Histone-lysine N-methyltransferase NSD2 (Homo sapiens, UniProt O96028)
Experimental: as §1

[32] = target: Histone-lysine N-methyltransferase SETDB1 (Homo sapiens, UniProt Q15047)
Experimental: as §1

[33] = target: Histone-lysine N-methyltransferase SETD2 (Homo sapiens, UniProt Q9BYW2)
Experimental: as §1

[34] = target: Histone-lysine N-methyltransferase SETD7 (Homo sapiens, UniProt Q8WTS6)
Experimental: as §1

[35] = target: N-lysine methyltransferase SMYD2 (Homo sapiens, UniProt Q9NRG4)
Experimental: as §1

[36] = target: Histone-lysine N-methyltransferase, H3 lysine-79 specific (Homo sapiens, UniProt Q8TEK3)
Experimental: as §1

Histone-arginine methyltransferase CARM1, sequence (Q86X55 whole entry): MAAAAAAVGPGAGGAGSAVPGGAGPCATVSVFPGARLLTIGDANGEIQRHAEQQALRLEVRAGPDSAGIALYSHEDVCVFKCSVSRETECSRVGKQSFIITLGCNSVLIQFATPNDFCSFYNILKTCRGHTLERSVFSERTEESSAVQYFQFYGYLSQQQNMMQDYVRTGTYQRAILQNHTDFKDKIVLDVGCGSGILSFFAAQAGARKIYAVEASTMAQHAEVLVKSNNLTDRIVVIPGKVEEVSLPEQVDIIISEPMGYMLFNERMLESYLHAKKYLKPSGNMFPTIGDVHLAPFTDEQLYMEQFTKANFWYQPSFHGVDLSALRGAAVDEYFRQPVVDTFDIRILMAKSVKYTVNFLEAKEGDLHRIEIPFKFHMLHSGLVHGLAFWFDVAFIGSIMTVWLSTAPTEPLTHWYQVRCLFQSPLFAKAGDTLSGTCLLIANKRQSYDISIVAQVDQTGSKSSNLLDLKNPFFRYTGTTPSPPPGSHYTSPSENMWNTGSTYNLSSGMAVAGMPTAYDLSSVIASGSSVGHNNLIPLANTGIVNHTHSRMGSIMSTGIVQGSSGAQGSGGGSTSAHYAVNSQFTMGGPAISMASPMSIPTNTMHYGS
Gamma-aminobutyric acid receptor subunit alpha-1, sequence (P14867 whole entry): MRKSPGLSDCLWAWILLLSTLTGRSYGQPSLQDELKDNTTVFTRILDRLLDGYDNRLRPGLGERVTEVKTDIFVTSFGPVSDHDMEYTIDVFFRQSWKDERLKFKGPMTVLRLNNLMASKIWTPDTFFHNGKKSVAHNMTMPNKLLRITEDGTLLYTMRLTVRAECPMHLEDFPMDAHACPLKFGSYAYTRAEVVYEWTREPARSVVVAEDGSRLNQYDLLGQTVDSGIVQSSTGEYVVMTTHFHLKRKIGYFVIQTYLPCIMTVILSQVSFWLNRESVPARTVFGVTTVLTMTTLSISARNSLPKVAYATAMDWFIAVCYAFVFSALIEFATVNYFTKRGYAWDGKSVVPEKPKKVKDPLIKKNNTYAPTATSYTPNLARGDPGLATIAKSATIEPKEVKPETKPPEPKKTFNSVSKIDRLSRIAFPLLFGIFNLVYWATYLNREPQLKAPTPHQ
Protein arginine N-methyltransferase 3 [N508S], sequence (O60678 2-531 N508S limits assumed): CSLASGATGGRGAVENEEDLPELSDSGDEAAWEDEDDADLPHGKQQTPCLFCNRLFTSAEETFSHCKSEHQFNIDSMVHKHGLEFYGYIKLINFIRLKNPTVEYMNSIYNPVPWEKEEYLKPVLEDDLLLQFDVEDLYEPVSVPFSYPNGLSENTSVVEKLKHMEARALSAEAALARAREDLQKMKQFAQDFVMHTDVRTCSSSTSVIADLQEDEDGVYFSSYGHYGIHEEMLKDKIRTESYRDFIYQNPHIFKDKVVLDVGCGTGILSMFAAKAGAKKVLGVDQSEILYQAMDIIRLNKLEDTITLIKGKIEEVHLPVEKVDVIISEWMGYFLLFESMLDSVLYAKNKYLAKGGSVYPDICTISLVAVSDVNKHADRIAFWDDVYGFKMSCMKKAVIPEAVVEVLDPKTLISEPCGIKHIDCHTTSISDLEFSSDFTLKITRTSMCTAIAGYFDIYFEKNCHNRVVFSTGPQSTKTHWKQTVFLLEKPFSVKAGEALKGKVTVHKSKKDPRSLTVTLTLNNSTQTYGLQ
T6 sequence (P41279 30-404): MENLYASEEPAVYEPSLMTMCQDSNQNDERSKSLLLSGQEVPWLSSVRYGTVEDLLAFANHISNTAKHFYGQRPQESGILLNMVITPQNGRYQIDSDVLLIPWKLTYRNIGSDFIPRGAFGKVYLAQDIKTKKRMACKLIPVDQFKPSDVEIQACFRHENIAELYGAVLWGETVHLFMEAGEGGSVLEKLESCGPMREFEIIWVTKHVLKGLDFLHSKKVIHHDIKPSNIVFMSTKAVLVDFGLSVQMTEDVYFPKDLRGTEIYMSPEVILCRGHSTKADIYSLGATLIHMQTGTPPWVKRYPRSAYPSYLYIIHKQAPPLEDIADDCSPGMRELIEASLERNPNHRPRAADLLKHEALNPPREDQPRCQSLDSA
T3 sequence (P00519 64-515): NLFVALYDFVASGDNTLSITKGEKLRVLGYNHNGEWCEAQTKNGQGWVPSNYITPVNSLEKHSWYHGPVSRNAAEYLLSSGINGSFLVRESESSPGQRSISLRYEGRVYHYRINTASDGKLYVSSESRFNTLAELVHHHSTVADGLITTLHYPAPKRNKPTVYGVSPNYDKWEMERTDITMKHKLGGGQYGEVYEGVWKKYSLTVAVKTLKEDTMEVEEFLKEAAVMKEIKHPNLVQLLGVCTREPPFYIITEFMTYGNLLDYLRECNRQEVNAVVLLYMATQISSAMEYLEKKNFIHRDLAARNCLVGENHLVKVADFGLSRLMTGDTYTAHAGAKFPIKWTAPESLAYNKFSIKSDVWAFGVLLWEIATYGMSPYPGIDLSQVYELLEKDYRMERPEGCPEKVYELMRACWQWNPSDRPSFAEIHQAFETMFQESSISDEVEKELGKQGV
T1 sequence (O75116 6-553): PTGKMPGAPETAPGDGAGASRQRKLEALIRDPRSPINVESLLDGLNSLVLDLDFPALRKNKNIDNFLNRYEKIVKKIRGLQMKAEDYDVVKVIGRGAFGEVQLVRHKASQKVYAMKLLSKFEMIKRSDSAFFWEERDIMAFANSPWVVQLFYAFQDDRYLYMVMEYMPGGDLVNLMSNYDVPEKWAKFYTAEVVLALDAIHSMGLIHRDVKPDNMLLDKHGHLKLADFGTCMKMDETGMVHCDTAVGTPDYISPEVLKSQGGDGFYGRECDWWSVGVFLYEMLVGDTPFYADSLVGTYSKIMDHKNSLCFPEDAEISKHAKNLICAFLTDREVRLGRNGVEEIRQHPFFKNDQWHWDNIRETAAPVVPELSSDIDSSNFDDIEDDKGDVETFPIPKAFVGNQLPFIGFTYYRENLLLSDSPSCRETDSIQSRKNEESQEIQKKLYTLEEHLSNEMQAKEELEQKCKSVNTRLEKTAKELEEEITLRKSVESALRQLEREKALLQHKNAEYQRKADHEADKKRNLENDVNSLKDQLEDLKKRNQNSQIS
D(1A) dopamine receptor, sequence (P21728 whole entry): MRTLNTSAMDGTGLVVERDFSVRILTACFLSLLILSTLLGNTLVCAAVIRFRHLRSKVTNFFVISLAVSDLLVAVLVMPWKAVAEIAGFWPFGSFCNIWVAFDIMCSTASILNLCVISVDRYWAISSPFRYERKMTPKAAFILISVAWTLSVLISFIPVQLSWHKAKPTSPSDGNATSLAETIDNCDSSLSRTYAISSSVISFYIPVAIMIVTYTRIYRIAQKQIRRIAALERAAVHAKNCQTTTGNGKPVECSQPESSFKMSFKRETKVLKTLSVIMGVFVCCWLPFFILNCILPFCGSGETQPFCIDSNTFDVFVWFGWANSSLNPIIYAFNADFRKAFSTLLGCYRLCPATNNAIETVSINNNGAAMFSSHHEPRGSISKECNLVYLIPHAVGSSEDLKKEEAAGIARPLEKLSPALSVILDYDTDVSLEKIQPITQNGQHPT
N-lysine methyltransferase SMYD2, sequence (Q9NRG4 whole entry): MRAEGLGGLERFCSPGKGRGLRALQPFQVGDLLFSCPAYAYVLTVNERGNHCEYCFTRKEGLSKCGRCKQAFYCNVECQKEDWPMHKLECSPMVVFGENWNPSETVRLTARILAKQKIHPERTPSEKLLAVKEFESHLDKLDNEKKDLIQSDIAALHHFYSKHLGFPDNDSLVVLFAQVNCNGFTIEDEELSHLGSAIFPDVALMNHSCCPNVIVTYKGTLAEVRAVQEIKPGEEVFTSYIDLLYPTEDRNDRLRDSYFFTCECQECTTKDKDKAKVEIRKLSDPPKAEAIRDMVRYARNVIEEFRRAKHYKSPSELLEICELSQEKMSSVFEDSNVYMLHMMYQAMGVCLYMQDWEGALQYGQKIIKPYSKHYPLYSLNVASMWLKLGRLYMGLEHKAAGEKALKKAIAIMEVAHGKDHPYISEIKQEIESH
5-hydroxytryptamine receptor 1A, sequence (P08908 whole entry): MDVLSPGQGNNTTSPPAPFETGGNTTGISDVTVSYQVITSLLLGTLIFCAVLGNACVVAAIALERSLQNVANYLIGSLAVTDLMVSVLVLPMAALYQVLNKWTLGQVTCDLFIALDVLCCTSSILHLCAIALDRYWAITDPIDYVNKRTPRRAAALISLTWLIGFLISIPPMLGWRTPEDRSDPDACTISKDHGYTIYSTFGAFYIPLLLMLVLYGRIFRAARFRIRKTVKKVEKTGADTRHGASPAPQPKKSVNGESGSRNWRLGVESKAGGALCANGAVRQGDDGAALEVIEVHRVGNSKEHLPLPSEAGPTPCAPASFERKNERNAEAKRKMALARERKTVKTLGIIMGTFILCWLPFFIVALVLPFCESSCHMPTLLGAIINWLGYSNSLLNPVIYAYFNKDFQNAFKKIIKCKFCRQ

**Q.** How did the IC50 [1] turn out when `CS(=O)(=O)c1ccc(-c2cnc(NCc3ccco3)n3cnnc23)cc1` [EED226] was run?
**A.** > 10 µM

**Q.** What about the IC50 [2] of the same compound?
**A.** > 30 µM

**Q.** And the IC50 [3]?
**A.** > 30 µM

**Q.** What about the IC50 [4] of the same compound?
**A.** > 30 µM

**Q.** And the IC50 [5]?
**A.** > 30 µM

**Q.** And the IC50 [6]?
**A.** > 10 µM

**Q.** And the IC50 [7]?
**A.** > 10 µM

**Q.** What about the IC50 [8] of the same compound?
**A.** > 100 µM

**Q.** And the IC50 [9]?
**A.** > 10 µM

**Q.** What about the IC50 [10] of the same compound?
**A.** > 10 µM

**Q.** What about the IC50 (D(1A) dopamine receptor) of the same compound?
**A.** > 30 µM

**Q.** And the IC50 [11]?
**A.** > 30 µM

**Q.** What about the IC50 [12] of the same compound?
**A.** > 10 µM

**Q.** And the IC50 [13]?
**A.** > 100 µM

**Q.** And the IC50 [14]?
**A.** > 10 µM

**Q.** And the IC50 [15]?
**A.** > 10 µM

**Q.** What about the IC50 [16] of the same compound?
**A.** > 100 µM

**Q.** And the IC50 [17]?
**A.** > 100 µM

**Q.** What about the IC50 [18] of the same compound?
**A.** > 100 µM

**Q.** And the IC50 [19]?
**A.** > 100 µM

**Q.** What about the IC50 [20] of the same compound?
**A.** > 10 µM

**Q.** What about the IC50 [21] of the same compound?
**A.** > 10 µM

**Q.** And the IC50 [22]?
**A.** > 10 µM

**Q.** And the IC50 (Estrogen receptor)?
**A.** > 30 µM

**Q.** What about the IC50 [23] of the same compound?
**A.** > 10 µM

**Q.** And the IC50 [24]?
**A.** > 30 µM

**Q.** What about the IC50 [25] of the same compound?
**A.** > 10 µM

**Q.** And the IC50 [26]?
**A.** > 100 µM

**Q.** What about the IC50 [27] of the same compound?
**A.** > 10 µM

**Q.** What about the IC50 [28] of the same compound?
**A.** > 100 µM

**Q.** What about the IC50 [29] of the same compound?
**A.** > 100 µM

**Q.** And the IC50 [30]?
**A.** > 100 µM

**Q.** What about the IC50 [31] of the same compound?
**A.** > 100 µM

**Q.** And the IC50 [32]?
**A.** > 100 µM

**Q.** What about the IC50 [33] of the same compound?
**A.** > 100 µM

**Q.** What about the IC50 [34] of the same compound?
**A.** > 100 µM

**Q.** What about the IC50 [35] of the same compound?
**A.** > 100 µM

**Q.** And the IC50 [36]?
**A.** > 100 µM
